From patent publication US20090042820A1, “Tubulin Binding Anti Cancer Agents And Prodrugs Thereof” (Threshold Pharmaceuticals, Inc., priority 2004, published 2009)
Read-outs that look alike come from different tables or passages of the source.

How the values were obtained:
H460 cells [1] = test: Alamar Blue antiproliferation assay, H460 cell line; assay type: cell-based, human
Procedure: (§1) To determine the effect of the compounds of the present invention on cell proliferation, the antiproliferative activity of these compounds was tested in a multi-well Alamar Blue based assay (at 2 h and 3 days). Cell growth in the presence and absence of the test compound as tabulated in Table 1 was compared, as measured by a fluorescence plate reader at excitation 550 nm and emission 590 nm (see Biosource International Inc., Tech Application Notes, Use of Alamar Blue in the measurement of Cell Viability and Toxicity, Determining IC50). H460 cells (ATCC HTB-177 ([…]), 4,000 cells/well/200 μl) and LNCap cells (ATCC CRL-1740, 6,000 cells/well/200 μl) were seeded in a 96 well plate in RPMI medium (Invitrogen Corporation, Carlsbad, Calif.). After 24 hours, these plates were divided into 3 groups—Control group, 2 h treatment group and 3 day treatment group.
(§2) In the 2 h treatment group, after 2 h the cells were rinsed to remove the test compound and incubated for 3 days, followed by staining with AlamarBlue. The cells in the 3-day treatment group were incubated for 3 days, followed by staining with AlamarBlue. In the Control group, AlamarBlue was added to the plate at (i) day 0 and (ii) day 3 and measured to establish the control reading. In all the groups, the capacity of the cells to proliferate was measured 6 hours after addition of AlamarBlue by a fluorescence plate reader at excitation 550 nm and emission 590 nm.

[2] = Metabolic stability in mouse liver microsomes; assay type: in vitro ADME; details: 5 μM, 1 mg/mL protein, NADPH, 37° C.
Procedure: An in vitro assessment of metabolic stability of compounds was performed using commercially available mouse liver microsomes (MLM) containing cytochrome P450 enzymes (Cedra Corp, Austin, Tex.). A solutions (5 μM) of a compound and microsomes (1 mg/mL protein) was prepared. P450 enzymatic reactions were initiated by adding an NADPH solution. Enzymatic reactions were carried out in a thermostated shaking water bath kept at 37° C. Fifty μl of the reaction mixture was withdrawn immediately and 30 minutes after the addition of the NADPH solution and the proteins were precipitated with acetonitrile. The clear supernatant was analyzed by reversed phase LC-MS/MS (Applied Biosystems API-3000 with Hypersil-BDS C18 column and gradient elution), with internal standard area ratio quantification for the amount the compound remaining as shown in table 4.

MES-SA/DX5 = test: Alamar Blue antiproliferation assay, MES-SA/DX5; assay type: cell-based; details: MES-SA/DX5, 3 Day
T47D = test: Alamar Blue antiproliferation assay, T47D; assay type: cell-based; details: 3 Day
HT29 = test: Alamar Blue antiproliferation assay, HT29; assay type: cell-based; details: HT29, 3 Day
MES-SA = test: Alamar Blue antiproliferation assay, MES-SA; assay type: cell-based; details: 3 Day
cancer cell = test: Cancer cell antiproliferation assay (cell line not stated); assay type: cell-based; details: summary statement; read-out: GI50 or IC50 in a cancer cell antiproliferation assay
Procedure: In one aspect, the present invention provides a compound of formula (I-VII) having a GI50, GI90, IC50, or IC50 of about 0.001 to about 1000 nM, about 0.01 to about 100 nm, about 0.1 to about 50 nM, and about 1 to about 10 nM in a cancer cell antiproliferation assay. In one embodiment, the present invention provides a compound of formula (I) having a GI50 or IC50 of about 0.01 to about 100 nm, about 0.1 to about 50 nm, and about 1 to about 10 nm in a cancer cell antiproliferation assay. In various embodiments, said antiproliferation assays employ cancer cell including but not limited to gastric, colon, breast, and non-small cell lung cancer. In various embodiments, the […] cancer cell used is MESSA or doxorubicin resistant MESSA/DX5 cell; the colon cancer cell is HT29 cell; the breast cancer cell is T47D cell; and the non-small cell lung cancer cell is H460 cell.
as §1, §2

H460 xenograft = H460 xenograft mouse model; assay type: in vivo; details: day 21; taxol alone 10 mg/kg daily; treatment began at 150 mm^3 tumor volume
Procedure: Female CB17/SCID mice (purchased from Taconic, Oxnard, Calif.), 7-8 weeks of age, were allowed to acclimatize for at least three days, and handled under pathogen-free conditions. Human non-small cell lung cancer cell line […] was obtained from the American Type Culture Collection. The cell lines were cultured in RPMI 1640 media supplemented with 10% fetal bovine serum. Cells were maintained in a 37° C. incubator with 5% CO2. The H460 cells were harvested from culture and inoculated at 1×10^6 cells/animal in the […] subcutaneous space. […] Taxol was administered approximately 2-3 hours before that of compound 30.
The body weight of each mouse was recorded twice per week (FIG. 1). […] One animal in the treatment group was found dead on day 18, and two were found dead on day 22 in the combination group.
FIG. 2 graphically illustrates the mean tumor volume for each treatment group. Growth of each xenograft was monitored by externally measuring tumors in two dimensions using a digital caliper twice per week. Tumor volume (V) was determined by the following equation: V=(L×W^2)/2, where L is the length and W is the width of a xenograft. Tumor volumes were measured twice weekly. On day 11, the Treated/Control (T/C) ratio was 65% and 52% in the treatment and combination groups, respectively. At the final measurement (day 22), the T/C ratio for the treatment and combination groups respectively were 43% and 19%.

Plasma stability = assay type: in vitro ADME; details: mouse plasma, 5 μM, 37° C.
Procedure: For an assessment of plasma stability of compounds, commercially available mouse plasma (Bioreclamation, Hicksville, N.Y.) was added to a DMSO solution of a compound, to a concentration of 5 μM. The reaction mixture (50 μl) was withdrawn immediately and after 30 minutes at 37° C., proteins were precipitated with acetonitrile. The clear supernatant was analyzed by reversed phase LC-MS/MS and the amount the compound remaining quantified as shown in table 4.

[3] = patients, reported in literature; cited from earlier work
H460 cells [4] = test: Cell cycle analysis; assay type: cell-based, human; details: 24 h
Procedure: H460 cells (2×10^5 cells/ml/well) were seeded in a 24 well plate. The culture media were removed after 24 h, the cells were trypsinized and centrifuged. […] The cells were centrifuged and the supernatant was discarded. The cell cycle staining reagent (Guava Technologies, Hayward, Calif., USA, 200 μl) was added to each well. The cells were shielded from light and incubated at room temperature for 30 min.

tubulin = test: Tubulin polymerization inhibition (cell free tubulin fluorescence); assay type: biochemical; details: compared to untreated tubulin, read-out: IC50 (μM), concentration that reduced tubulin fluorescence by 50%
Procedure: A sample of cell free tubulin polymerizes and the sample's fluorescence emission increases. Inhibition of tubulin polymerization by a tubulin binding compounds of the present invention was measured by the dose dependence of cell free tubulin fluorescence.

[5] = Homo sapiens, NCI-H460, 2 h treatment, then 3 days incubation, read-out: GI50 (nM) 2 Hour
[6] = Homo sapiens, NCI-H460, 72 h, 3 day treatment, read-out: GI50 (nM) 3 Days

GI50 (H460 cells [1]; [5]) | GI50 (H460 cells [1]; [6]) | Metabolic stability (MLM, % remaining at 30 min) [2] | IC50 (cancer cell) | GI50 (T47D; Homo sapiens, 72 h) | GI50 (HT29; Homo sapiens, HT-29, 72 h) | Compound | GI50 (MES-SA/DX5; Homo sapiens, 72 h) | GI50 (MES-SA; Homo sapiens, 72 h) | also measured
> 1000 nM | 25.1 nM | 94 ± 4% |  |  |  | COc1cc(C(=O)c2n[nH]c3c(C(N)=O)c(OC)ccc23)cc(OC)c1OC [Compound 60] |  |  | 
 | 10 nM | 88 ± 11% | 1 to 50 nM | 6.3 nM | 12.6 nM | COc1cc(C(=O)c2n[nH]c3c(C#CC(C)O)c(OC)ccc23)cc(OC)c1OC (centres unmarked) [Compound 66] | 10 nM | 15.8 nM | 
501 nM | 2 nM |  | 1 to 50 nM | 20 nM | 5 nM | COc1cc(C(=O)c2n[nH]c3c(/C=C/CO)c(OC)ccc23)cc(OC)c1OC [Compound 54] | 6.3 nM | 3.2 nM | 
> 10000 nM | 15.8 nM | 28 ± 6% |  |  |  | COc1cc(C(=O)c2n[nH]c3c(C#N)c(OC)ccc23)cc(OC)c1OC [Compound 58] |  |  | 
 | 15.8 nM |  | 1 to 50 nM | 200 nM | 12.6 nM | COc1cc(C(=O)c2n[nH]c3c(Br)c(OC)ccc23)cc(OC)c1OC [Compound 39] | 10 nM | 2.5 nM | % G2/M (H460 cells [4]; H460, 0.4 nM): 28%; % Go/G1 (H460 cells [4]; H460, 0.4 nM): 50%; % S (H460 cells [4]; H460, 0.4 nM): 15%; % G2/M (H460 cells [4]; H460, 1.2 nM): 31%; % Go/G1 (H460 cells [4]; H460, 1.2 nM): 47%; % S (H460 cells [4]; H460, 1.2 nM): 14%; % G2/M (H460 cells [4]; H460, 3.7 nM): 32%; % Go/G1 (H460 cells [4]; H460, 3.7 nM): 45%; % S (H460 cells [4]; H460, 3.7 nM): 12%; % G2/M (H460 cells [4]; H460, 11.1 nM): 29%; % Go/G1 (H460 cells [4]; H460, 11.1 nM): 47%; % S (H460 cells [4]; H460, 11.1 nM): 14%; % G2/M (H460 cells [4]; H460, 33.3 nM): 60%; % Go/G1 (H460 cells [4]; H460, 33.3 nM): 18%; % S (H460 cells [4]; H460, 33.3 nM): 13%; IC50 (tubulin): 7.9 µM
> 10000 nM | 7.9 nM |  | 1 to 50 nM | 25 nM | 10 nM | COc1cc(C(=O)c2n[nH]c3c(CCCO)c(OC)ccc23)cc(OC)c1OC [Compound 55] | 15.8 nM | 12 nM | 

The remaining lines, values behind:

Compound | GI50 (H460 cells [1]; [5]) | GI50 (H460 cells [1]; [6]) | Metabolic stability (MLM, % remaining at 30 min) [2] | IC50 (cancer cell) | GI50 (T47D; Homo sapiens, 72 h) | GI50 (HT29; Homo sapiens, HT-29, 72 h) | GI50 (MES-SA/DX5; Homo sapiens, 72 h) | GI50 (MES-SA; Homo sapiens, 72 h) | also measured
COc1cc(C(=O)c2n[nH]c3c(C#Cc4ccccn4)c(OC)ccc23)cc(OC)c1OC [Compound 68] |  |  | 17 ± 4% |  |  |  |  |  | GI50 (MES-SA/DX5): 1.9 nM; GI50 (H460 cells [1]; 3 day treatment, read-out: GI50 (nM) 3 Days): 1.4 nM; GI50 (T47D): 1.6 nM; GI50 (HT29): 1.6 nM; GI50 (MES-SA): 1.6 nM
CC(=O)O[C@H]1C(=O)[C@@]2(C)[C@H]([C@H](OC(=O)c3ccccc3)[C@]3(O)C[C@H](OC(=O)[C@H](O)[C@@H](NC(=O)c4ccccc4)c4ccccc4)C(C)=C1C3(C)C)[C@]1(OC(C)=O)CO[C@@H]1C[C@@H]2O [taxol, paclitaxel, reference compound] |  |  |  |  |  |  |  |  | TIC, tumor volume (H460 xenograft): 56%
COc1cc(C(=O)c2n[nH]c3c(C#CCOC(=O)OCc4ccc([N+](=O)[O-])o4)c(OC)ccc23)cc(OC)c1OC [Compound 57] | 100 nM | 10 nM | 21 ± 4% |  |  |  |  |  | 
C#Cc1c(OC)ccc2c(C(=O)c3cc(OC)c(OC)c(OC)c3)n[nH]c12 [Compound 72] |  | 1.3 nM | 40 ± 9% | 1 to 50 nM | 6.3 nM | 1.6 nM | 3.9 nM | 1.9 nM | Plasma stability (% remaining at 30 min) (Plasma stability): 105%
COc1ccc(/C=C\c2cc(OC)c(OC)c(OC)c2)cc1OP(=O)(O)O [Combretastatin A-4 phosphate] |  |  |  |  |  |  |  |  | maximum tolerated daily dose [3]: 60-68 mg/m^2
